Experimental data from patent US6943186B2, “Methods of treating sepsis” (Yung Shin Pharmaceutical Ind. Co., Ltd., priority 2002, dated 2005).
Where “and” joins values, the source holds several entries; their conditions need not be identical. Identical values can stand only once. Entries after “also recorded” stand apart in the source; their conditions may differ.

Columns and labels:
[1] = tested on: phosphorylated Akt; assay: Western blot of phosphorylated Akt; format: cell-based, rat
Protocol: (§1) Western Blot Analysis After the exposure of cells to the indicated agents for four (for Bcl-2) or six (for cytochrome c) hours, cells were washed twice with ice-cold PBS and reaction was terminated by the addition of 100 μL ice-cold lysis buffer (10 mmol/L Tris-HCl, pH 7.4, 150 mmol/L NaCl, 1 mmol/L EGTA, 0.5 mmol/L phenylmethylsulfonyl fluoride (PMSF), 10 μg/mL aprotinin, 10 μg/mL leupeptin, and 1% Triton X-100). For the detection of phosphorylated Akt, 1 mmol/L Na3VO4, 1 mmol/L NaF, 50 mmol/L tetrasodium pyrophosphate, 10 nmol/L okadaic acid, 0.25% sodium deoxycholate were included in the lysis buffer. Protein content was determined by the Bio-Rad protein assay (Bio-Rad Laboratories, CA, USA). For Western blot analysis, cell lysates (25 μg/lane) were electrophoresized on 10-15% SDS-polyacrylamide gels, and transferred to a nitrocellulose membrane. The membranes were probed with anti-Bcl-2 or anti-α-tubulin monoclonal antibody, or anti-phosphorylated Akt polyclonal antibody. The transferred membranes were developed with a secondary anti-mouse or anti-rabbit antibody as we previously described (Guh et al. (1998) Eur. J. Pharmacol. 359: 281-284). Detection of signal was performed with an enhanced chemiluminescence detection kit (ECL; Amersham International, Little Chalfont, U.K.).

[2] = tested on: NR8383 macrophages; assay: LPS/interferon γ-induced tumor necrosis factor-α release; format: cell-based; conditions: control 15.5±1.3, P=0.13, n=4
[3] = tested on: rat aortic smooth muscle cells; assay: Cytotoxicity (MTT) assay and TUNEL labeling, SNP-induced apoptosis in RASMCs; format: cell-based; conditions: for Cell survival (%) / effect on SNP-induced apoptosis / effect on Compound 3-induced cell proliferation / effect on Compound 3-mediated anti-apoptotic action: RASMCs; for effect on SNP-induced apoptosis: SNP 1 mmol/L, Compound 3 30 μmol/L; for effect on Compound 3-mediated anti-apoptotic action: inhibitor added to Compound 3 + SNP
Protocol: (§2) Cell Culture Rat aortic smooth muscle cells (RASMCs) were prepared from Sprague-Dawley rats and cultured in Dulbecco's modified Eagle's medium (DMEM) supplemented with 10% FBS, 100 units/mL penicillin and 100 μg/mL streptomycin (Gibco, Grand Island, N.Y.) as previously described (Yang et al. (2001) Br J Pharmacol. 132: 1531-1541). Cells within six generations were used in the present study. Cells were identified being the smooth muscle cells by immunostaining with monoclonal antibody specific for smooth muscle α-actin.
Cytotoxicity Assay The cytotoxicity assay was carried out using the MTT assay method. MTT (3-(4,5-dimethylthiazol-2-yl)-2,5-diphenyltetrazolium bromide, Sigma Chemical, St. Louis, Mo.) was dissolved in phosphate-buffered saline (PBS) at a concentration of 5 mg/mL and filtered (Millipore, Bedford, Mass.). From this stock solution, 10 μL/100 μL of medium was added to each well of a plate, and the plate was gently shaken and incubated at 37° C. for 2 hours. […] After the loading of MTT, the medium was replaced with 100 μL dimethylsulphoxide (DMSO). The extent of reduction of MTT to formazan within cells was quantified by the measurement of OD550 with an enzyme-linked immunosorbent assay (ELISA) reader.
In Situ Labeling of Apoptotic Cells In situ detection of apoptotic cells was carried out by using a terminal deoxynucleotidyl transferase (TdT) dUTP nick-end labeling (TUNEL) method with an apoptotic detection kit (Promega, Madison, Wis., USA) as described previously (Guh et al. (1998) Mol Pharmacol. 53: 467-474). The TUNEL method identifies apoptotic cells in situ by using TdT to transfer biotin-dUTP to the free 3′-OH of cleaved DNA. The biotin-labeled cleavage sites then were visualized by reaction with fluorescein conjugated avidin (avidin-fluorescein isothiocyanate). Photomicrographs were obtained with a fluorescence microscope (Nikon).

[4] = tested on: murine macrophage RAW 264.7 cells; assay: LPS-evoked NO formation; format: cell-based; conditions: RAW 264.7, LPS 1 μg/mL, 24-hour; control 68.8±13.4; P=0.43, n=4
[5] = Reduction of cytochrome c by superoxide anion (xanthine/xanthine oxidase); format: biochemical; conditions: xanthine/xanthine oxidase system; control 42.0±2.1; P=0.4, n=4
[6] = Free radical-scavenging activity with 1,1-diphenyl-2-picrylhydrazyl; conditions: stable radical 1,1-diphenyl-2-picrylhydrazyl; data not shown
[7] = tested on: LPS-induced septic death in mouse model; assay: LPS-induced endotoxic shock (septic death) and lung histology; format: in vivo, mice
Protocol: Induction of Endotoxic Shock and Histological Examination In these experiments, mice (25-30 g, ICR strain) were injected intraperitoneally with 60 mg/kg of LPS (dissolved in PBS), and Compound 3 (suspended in carboxymethyl cellulose) was orally administered after the injection of LPS for 2 and 6 hours. The survival rate was monitored every 3 to 6 hours after LPS injection. For histological examination, the lung tissues were put into the 4% paraformaldehyde and embedded in paraffin. The embedded tissues were sectioned at 6-μm thick, stained with hematoxylin-eosin, and analyzed using a microscopy.

[8] = tested on: caspase-3; assay: Determination of caspase-3 activity in RASMCs; format: cell-based, rat
Protocol: Determination of Caspase-3 Activity
The Caspase-3 activity was assayed with the Caspase-3 colorimetric assay kit (R&D Systems, Inc., Minneapolis, Minn.). After the treatment of cells with indicated agents for ten hours, cells were washed twice with ice-cold PBS, trypsinized, and centrifuged (800×g for 5 minutes), and the cell pellet was re-suspended in pre-cooled lysis buffer obtained from the Caspase-3 colorimetric assay kit. After 10 minutes of incubation on ice, cell homogenates were centrifuged at 10,000×g for 1 minute and supernatants were removed for the determination of caspase-3 activity. Proteolytic reactions were performed in a total volume of 100 μL reaction buffer containing 50 μL of cytosolic extracts and 5 μL DEVD-pNA obtained from the kit. The reaction mixture was incubated at 37° C. for one to two hours and the formation of p-nitroaniline was then measured at 405 nm by an ELISA reader.

[9] = tested on: cytochrome c; assay: Detection of cytochrome c release; format: cell-based, rat
Protocol: Detection of Cytochrome c Release Reaction Cells were trypsinized and centrifuged at 800×g for 10 minutes. Then, the cell pellet was re-suspended in 50 μL of extraction buffer containing 20 mmol/L HEPES, pH 7.5, 10 mmol/L KCl, 1.5 mmol/L MgCl2, 1 mmol/L EDTA, 1 mmol/L EGTA, 1 mmol/L dithithretol, 1 mmol/L PMSF) and incubated for 3 minutes on ice. Cells were managed with 30 strokes and centrifuged at 15,000×g for 15 minutes at 4° C. Aliquots of 20 μg protein were resolved on 15% SDS-polyacrylamide gel and then blotted to PVDF membranes. Membranes were incubated with anti-cytochrome c monoclonal antibody. Then, membranes were incubated with anti-mouse IgG and the expression of cytochrome c was detected as described previously.
Western Blot Analysis After the exposure of cells to the indicated agents for four (for Bcl-2) or six (for cytochrome c) hours, cells were washed twice with ice-cold PBS and reaction was terminated by the addition of 100 μL ice-cold lysis buffer (10 mmol/L Tris-HCl, pH 7.4, 150 mmol/L NaCl, 1 mmol/L EGTA, 0.5 mmol/L phenylmethylsulfonyl fluoride (PMSF), 10 μg/mL aprotinin, 10 μg/mL leupeptin, and 1% Triton X-100). […] Protein content was determined by the Bio-Rad protein assay (Bio-Rad Laboratories, CA, USA). […]

[10] = tested on: cyclooxygenase; conditions: Ko et al. (1994) Blood 84: 4226-4233; cited from earlier work
[11] = tested on: Bcl-2; assay: Western blot of Bcl-2 levels; format: cell-based, rat
Protocol: as §1

[12] = tested on: intracellular cGMP levels; assay: Assay of cGMP contents; format: cell-based, rat
Protocol: as §2
Assay of cGMP Contents At confluence, monolayer cells were incubated with indicated agents for 10 minutes. Then cells were washed twice with ice-cold PBS and lysed with 0.5 mL NaOH (0.1 mol/L). 0.5 mL HCl (0.1 mol/L) was then added to neutralize the assay solution. After the centrifugation (3,000×g for 3 minutes), the supernatant was used for the detection of cGMP content by using a cGMP ELISA kit.

[13] = single agent alone, mean ± SEM, control 100
[14] = combination of SNP and Compound 3
[15] = inhibitor added to Compound 3 + SNP

Structure (SMILES): OCc1ccc(-c2nn(Cc3ccccc3)c3ccccc23)o1 [Compound 3]
- phosphorylated Akt expression ([1]; Compound 3 alone): profound increase
- phosphorylated Akt expression ([1]; Compound 3 in combination with SNP): profound increase
- LPS/interferon γ-induced tumor necrosis factor-α release [2]: 18.5 ± 1.2 ng/mL
- increase in cell number ([3]; Compound 3 alone, not statistically significant): 11%
- Cell survival (%) ([3]; ODQ + Compound 3): 96.1 ± 4.2%
- Cell survival (%) ([3]; ODQ + SNP + Compound 3): 69.6 ± 4.0 %
- effect on SNP-induced apoptosis [3]: completely abolished
- Cell survival (%) ([3]; SNP + Compound 3 (SNP 1 mmol/L, Compound 3 30 μmol/L)): 100.6±5.5% and 102.9 ± 8.1^+ %
- ODQ-irresponsible action in Compound 3-mediated effect ([3]; remaining anti-apoptotic effect in presence of ODQ): about 20%
- Cell survival (%) [3, 13]: 111.3 ± 8.8%
- NO formation (nitrite) [4]: 53.4 ± 12.3 µmol/L
- reduction of cytochrome c by superoxide anion [5]: 40±0.6%
- free radical-scavenging activity [6]: little free radical-scavenging activity
- condition of survived mice after LPS initiation ([7]; LPS 60 mg/kg i.p., Compound 3 10 mg/kg oral post-treatment): remained vigorous more than one month
- survival rate of mice ([7]; LPS 60 mg/kg i.p., Compound 3 10 mg/kg oral two hours after LPS): significantly increased
- histological examination of lung tissues ([7]; post-treated Compound 3 group, LPS mice): intact blood vessels without the infiltration of blood cells
- effect on SNP-induced caspase-3 activity ([8]; SNP 1 mmol/L, RASMCs): completely inhibited
- effect on SNP-induced cytochrome c release ([9]; SNP 1 mmol/L): completely prevented
- inhibition on cyclooxygenase activity [10]: no inhibition
- effect on SNP-induced Bcl-2 down-regulation ([11]; SNP 1 mmol/L): completely prevented
- cGMP synthesis ([12]; Compound 3 alone, basal 2.3±0.3, 10 minutes): 4.2±0.8 fmol/well
- cGMP formation [12, 14]: 252.8±81.8 fmol/well
- increase of cGMP formation (folds) [12, 14]: more than sixty folds

Structure (SMILES): O=c1onc2cnc3ccccc3n12 [ODQ, reference compound]
- effect on Compound 3-induced phosphorylated Akt expression ([1]; Compound 3 alone or with SNP): profoundly inhibited
- effect on Compound 3-induced cell proliferation [3]: completely inhibited
- effect on SNP-induced apoptosis [3]: no influence
- effect on Compound 3-mediated anti-apoptotic action [3]: significantly reversed
- Cell survival (%) [3, 13]: 99.5 ± 5.7%
- effect on Compound 3-mediated inhibition of caspase-3 activity [8, 15]: partially but significantly reversed
- effect on preventive action of Compound 3 (cytochrome c release) [9, 15]: fully reversed
- effect on preventive action of Compound 3 (Bcl-2 down-regulation) [11, 15]: fully reversed
- cGMP level ([12]; ODQ + Compound 3 alone): the basal value
- cGMP level ([12]; ODQ + combination of SNP and Compound 3): ~21 fmol/well

Structure (SMILES): COc1cccc(-c2cc(=O)c3ccccc3o2)c1N [PD98059]
- effect on Compound 3-induced cell proliferation [3]: completely inhibited
- effect on Compound 3-mediated anti-apoptotic action [3]: significantly reversed; also recorded: not PD98059 reversed

Structure (SMILES): Cn1cc(C2=C(c3cn(CCCSC(=N)N)c4ccccc34)C(=O)NC2=O)c2ccccc21 [Ro-318220]
- cell survival ([3]; Ro-318220 added to Compound 3 plus SNP, n=7): 107.1±3.1%
- effect on Compound 3-mediated anti-apoptotic action [3]: little influence

Structure (SMILES): CCCC(=O)Nc1nc2c(ncn2C2OC3COP(=O)([O-])OC3C2OC(=O)CCC)c(=O)[nH]1.[Na+] (centres unmarked) [dibutyl-cGMP]
- effect on SNP-induced apoptosis [3]: significantly reverse
